{"source": "patent US20130164384A1", "about": "“METHODS OF TREATING BOWEL DISEASES BY ADMINISTERING A BOWEL CLEANSER AND AN ANTIBIOTIC” (Salix Pharmaceuticals, Ltd., priority 2008, published 2013)", "system": "subjects diagnosed with dIBS", "assay": "Designed study of 14-day oral rifaximin 550 mg TID for adequate relief of dIBS symptoms over four weeks", "type": "in vivo, human", "settings": "oral 550 mg TID, 14-day course; 4 week study duration", "experimental": "A study is designed to evaluate the efficacy of a 14-day course of oral rifaximin at 550 mg TID in providing adequate relief from diarrhea-associated IBS (dIBS) symptoms over four weeks. The study populations includes subjects diagnosed with dIBS according to Rome III criteria utilizing the subtype for dIBS from the Rome II criteria. Subjects have a mean abdominal pain and discomfort score <4.5, a mean bloating score of <4.5 and a mean stool score (loose and watery)<3.5 for at least 7 of the 10 days during screening. A measure of efficacy is based on subjects' answers to the Weekly Subject Global Assessment (SGA) questions over the 4 week study duration in relation to their IBS symptoms. The SGA question is asked weekly as follows: “In the past 7 days, have you had adequate relief of your IBS symptoms?” (Yes/No.) It is discovered that Subjects in the treatment group taking oral rifaximin respond “Yes” more often than Subjects who are not taking oral rifaximin. Another measure of efficacy is based on subjects' answers to the Weekly Subject Global Assessment (SGA) question over the 4 week study duration in relation to their IBS symptom of bloating. The SGA question is asked weekly as follows: “In the past 7 days, have you had adequate relief of your IBS symptom of bloating?” (Yes/No). […]"}
{"smiles": "COC1/C=C/OC2(C)Oc3c(C)c(O)c4c(O)c(c5c(nc6cc(C)ccn65)c4c3C2=O)NC(=O)/C(C)=C\\C=C\\C(C)C(O)C(C)C(O)C(C)C(OC(C)=O)C1C", "note": "[RFX, (2S,16Z,18E,20S,21S,22R,23R,24R,25S,26S,27S,28E)-5,6,21,23,25 Pentahydroxy-27-methoxy-2,4,11,16,20,22,24,26-octamethyl-2,7-(epoxypentadeca-(1,11,13)trienimino)benzofuro(4,5-e)pyrido(1,2,-a)benzimidazole-1,15(2H)-dione,25-acetate]", "values": [{"measurement": "\"Yes\" responses to weekly SGA question on adequate relief of IBS symptom of bloating versus subjects not taking rifaximin", "value": "more often"}, {"measurement": "\"Yes\" responses to weekly SGA question on adequate relief of IBS symptoms versus subjects not taking rifaximin", "value": "more often"}]}
